Patent US7595395B2, “Gabaergic agents to treat memory deficits” (priority 2005, dated 2009)

Legend:
[1] = tested on: GABAA receptor subtypes (alpha 1 to alpha 6 with beta 3 and gamma 2); experiment: Direct triggering of chloride currents in oocytes, all tested subtypes; type: cell-based; conditions: no GABA
[2] = biological target: α1β3γ2 GABAA receptor (Rattus norvegicus, UniProt P18508+P62813); experiment: Two-electrode voltage clamp in Xenopus oocytes, α1β3γ2
[3] = biological target: α6β3γ2 GABAA receptor (Rattus norvegicus, UniProt P18508+P30191); experiment: Two-electrode voltage clamp in Xenopus oocytes, α6β3γ2
[4] = biological target: α2β3γ2 GABAA receptor (Rattus norvegicus, UniProt P18508+P23576); experiment: Two-electrode voltage clamp in Xenopus oocytes, α2β3γ2
[5] = biological target: α5β3γ2 GABAA receptor (Rattus norvegicus, UniProt P18508+P19969); experiment: Two-electrode voltage clamp in Xenopus oocytes, α5β3γ2
[6] = biological target: α4β3γ2 GABAA receptor (Rattus norvegicus, UniProt P18508+P28471); experiment: Two-electrode voltage clamp in Xenopus oocytes, α4β3γ2
[7] = biological target: α3β3γ2 GABAA receptor (Rattus norvegicus, UniProt P18508+P20236); experiment: Two-electrode voltage clamp in Xenopus oocytes, α3β3γ2
[8] = tested on: C57B1/6 mice; conditions: DeLorey et al.; cited from earlier work
[9] = biological target: T1, α5β3γ2 benzodiazepine receptor GABA(A) isoform (UniProt P18507+P31644); experiment: Radioligand competition binding, α5β3γ2 BzR/GABA(A) isoform; design: rows headed: Ki at α5β3γ2 subtypes; other: text; α1-6β3γ2 LTK cells; species or system human and rat; conditions: read-out: Ki at α5β3γ2 subtypes; α1-6β3γ2 LTK cells
T1 sequence (P18507 1-475): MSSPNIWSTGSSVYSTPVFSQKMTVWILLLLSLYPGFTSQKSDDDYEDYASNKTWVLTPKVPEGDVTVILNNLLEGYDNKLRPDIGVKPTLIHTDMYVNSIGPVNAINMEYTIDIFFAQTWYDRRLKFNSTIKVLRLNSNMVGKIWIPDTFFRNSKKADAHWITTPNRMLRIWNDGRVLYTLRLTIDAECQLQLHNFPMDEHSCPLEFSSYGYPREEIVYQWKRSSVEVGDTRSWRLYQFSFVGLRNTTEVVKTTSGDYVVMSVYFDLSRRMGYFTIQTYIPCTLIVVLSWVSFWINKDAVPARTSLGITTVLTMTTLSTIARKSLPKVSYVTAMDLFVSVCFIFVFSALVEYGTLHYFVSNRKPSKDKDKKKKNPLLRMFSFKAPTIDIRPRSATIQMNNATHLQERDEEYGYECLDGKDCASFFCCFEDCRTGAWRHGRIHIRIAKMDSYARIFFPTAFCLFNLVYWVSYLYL
T1 sequence (P31644 1-462): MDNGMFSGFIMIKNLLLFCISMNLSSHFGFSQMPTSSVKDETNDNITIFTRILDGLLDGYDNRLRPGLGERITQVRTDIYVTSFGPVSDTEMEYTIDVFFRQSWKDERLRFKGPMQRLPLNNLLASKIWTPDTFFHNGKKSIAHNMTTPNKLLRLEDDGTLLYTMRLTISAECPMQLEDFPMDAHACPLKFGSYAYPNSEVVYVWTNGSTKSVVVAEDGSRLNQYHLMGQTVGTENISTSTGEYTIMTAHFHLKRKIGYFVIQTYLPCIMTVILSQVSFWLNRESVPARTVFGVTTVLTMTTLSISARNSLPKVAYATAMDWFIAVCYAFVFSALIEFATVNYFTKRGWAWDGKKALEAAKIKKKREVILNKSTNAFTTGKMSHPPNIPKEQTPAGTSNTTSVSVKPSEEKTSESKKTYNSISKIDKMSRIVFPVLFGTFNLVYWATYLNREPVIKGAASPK

[10] = tested on: C57BL/6J mice; experiment: Titrating delayed matching-to-position schedule; type: in vivo
Experimental: In regard to cognition, the effect of systemic administration of subtype selective agents on short term memory was determined in white Carneau pigeons. Administration of drug was intramuscularly and the titrating matching-to-sample schedule of reinforcement was used. […] In addition, C57BL/6J mice were used to look at the mean delay achieved in the titrating delayed matching-to-position schedule (doses, ip).

[11] = tested on: αxβ3γ2 (α = 1-6) BzR/GABA(A) subtypes; experiment: Binding across the BzR/GABA(A) subtypes (subtype selectivity in words); design: species or system human and rat
Experimental: The binding affinity of XLi093 (8) in vitro was determined on α1-6β3γ2 LTK cells and is illustrated in the Scheme as shown in FIG. 2
The affinity of all ligands at the 6 major recombinant GABAA/BzR subtypes was measured by competition for [^3H]Ro15-1788 binding to HEK-T cells expressing both human and rat GABAA/Bz receptors of composition α1β2γ2 (α1), α2β2γ2 (α2), α3β2γ2 (α3), α4β2γ2 (α4), α5β2γ2 (α5) and α6β2γ2 (α6). It is well known that the β2 and β3 subunits can be interchanged with no effect on Bz ligand affinity or efficacy. […] These studies are similar to those performed in the laboratory of Bryan Roth who has already expressed the receptors employing the work of Kucken et. al. and Gray et. al.
In brief, for membrane preparations, the cells were scraped on to the ice and diluted into 5 mL of phosphate buffered saline (pH=7.40) and cells pelleted by centrifugation for 5 min. at 4° C. The pellet was resuspended in 1 mL of 50 mM Tris-acetate buffer (pH 7.4) and centrifuged at 18,000 g for 20 min. […] The membranes were harvested in polyethyleneimine-pretreated Whatman GF/C filters and after drying and addition of scintillation cocktail, counted in a scintillation counter. […]

[12] = Crossing of the blood brain barrier; conditions: in vivo
[13] = biological target: GABAA/α3 receptors (Homo sapiens, UniProt P18507+P34903); conditions: Huang et al. 2000, WO 03/082832A2; cited from earlier work
[14] = biological target: GABAA/α2 receptors (Homo sapiens, UniProt P18507+P47869); conditions: Huang et al. 2000, WO 03/082832A2; cited from earlier work
[15] = biological target: GABAA/α5 receptors (Homo sapiens, UniProt P18507+P31644); conditions: Huang et al. 2000, WO 03/082832A2; cited from earlier work
[16] = biological target: GABAA/α1 receptors (Homo sapiens, UniProt P14867+P18507); conditions: Huang et al. 2000, WO 03/082832A2; cited from earlier work

Chain of α1β3γ2 GABAA receptor (P62813 28-455): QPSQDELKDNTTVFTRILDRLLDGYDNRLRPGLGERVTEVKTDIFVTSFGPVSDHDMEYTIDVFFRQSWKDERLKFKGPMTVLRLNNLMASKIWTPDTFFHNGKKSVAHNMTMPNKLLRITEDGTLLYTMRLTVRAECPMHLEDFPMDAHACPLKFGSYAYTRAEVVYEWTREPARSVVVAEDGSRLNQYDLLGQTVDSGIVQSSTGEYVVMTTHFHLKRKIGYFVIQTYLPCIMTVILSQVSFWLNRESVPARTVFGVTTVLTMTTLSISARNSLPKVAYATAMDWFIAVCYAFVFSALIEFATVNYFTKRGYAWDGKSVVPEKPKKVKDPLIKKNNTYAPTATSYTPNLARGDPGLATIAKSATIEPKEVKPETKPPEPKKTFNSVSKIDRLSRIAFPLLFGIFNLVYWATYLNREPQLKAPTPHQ
Chain of α1β3γ2 GABAA receptor (P63079 26-473 partner): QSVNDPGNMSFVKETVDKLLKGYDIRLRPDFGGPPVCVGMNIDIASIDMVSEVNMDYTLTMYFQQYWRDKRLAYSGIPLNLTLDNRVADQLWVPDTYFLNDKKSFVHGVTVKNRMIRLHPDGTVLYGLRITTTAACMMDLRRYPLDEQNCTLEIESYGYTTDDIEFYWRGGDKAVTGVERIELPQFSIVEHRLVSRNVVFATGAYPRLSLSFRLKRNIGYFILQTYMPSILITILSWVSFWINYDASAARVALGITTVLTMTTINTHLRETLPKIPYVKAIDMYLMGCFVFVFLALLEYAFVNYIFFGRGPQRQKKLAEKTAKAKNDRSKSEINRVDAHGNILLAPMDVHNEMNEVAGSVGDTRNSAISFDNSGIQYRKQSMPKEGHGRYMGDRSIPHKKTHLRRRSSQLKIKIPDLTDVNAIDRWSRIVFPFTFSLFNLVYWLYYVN
Chain of α1β3γ2 GABAA receptor (P18508 39-466): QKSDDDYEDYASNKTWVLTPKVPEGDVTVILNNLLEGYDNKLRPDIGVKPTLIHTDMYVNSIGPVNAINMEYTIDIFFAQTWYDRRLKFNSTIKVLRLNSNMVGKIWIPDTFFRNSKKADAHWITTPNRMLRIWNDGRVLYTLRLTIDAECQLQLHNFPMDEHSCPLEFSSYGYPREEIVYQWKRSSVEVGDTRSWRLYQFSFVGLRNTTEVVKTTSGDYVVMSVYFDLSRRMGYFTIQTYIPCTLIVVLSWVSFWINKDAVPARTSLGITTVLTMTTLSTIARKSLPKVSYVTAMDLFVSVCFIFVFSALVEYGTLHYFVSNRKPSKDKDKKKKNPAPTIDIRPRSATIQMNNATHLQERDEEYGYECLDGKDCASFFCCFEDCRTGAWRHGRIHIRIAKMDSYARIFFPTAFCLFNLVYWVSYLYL
Chain of α2β3γ2 GABAA receptor (P23576 29-451): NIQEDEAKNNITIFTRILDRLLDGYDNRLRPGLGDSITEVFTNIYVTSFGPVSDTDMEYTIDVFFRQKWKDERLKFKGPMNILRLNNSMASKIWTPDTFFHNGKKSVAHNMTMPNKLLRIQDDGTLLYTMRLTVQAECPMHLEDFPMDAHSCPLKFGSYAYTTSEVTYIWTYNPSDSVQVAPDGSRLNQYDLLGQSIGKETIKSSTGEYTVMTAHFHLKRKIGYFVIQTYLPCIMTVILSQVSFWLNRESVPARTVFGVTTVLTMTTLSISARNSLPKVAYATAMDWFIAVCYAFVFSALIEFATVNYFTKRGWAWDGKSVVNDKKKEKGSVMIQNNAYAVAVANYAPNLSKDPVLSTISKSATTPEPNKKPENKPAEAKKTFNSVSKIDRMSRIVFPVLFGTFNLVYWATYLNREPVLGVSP
Chain of α2β3γ2 GABAA receptor (P63079 26-473 partner): as the sequence (P63079 26-473 partner) above
Chain of α2β3γ2 GABAA receptor (P18508 39-466): as the sequence (P18508 39-466) above
Chain of α3β3γ2 GABAA receptor (P20236 29-493): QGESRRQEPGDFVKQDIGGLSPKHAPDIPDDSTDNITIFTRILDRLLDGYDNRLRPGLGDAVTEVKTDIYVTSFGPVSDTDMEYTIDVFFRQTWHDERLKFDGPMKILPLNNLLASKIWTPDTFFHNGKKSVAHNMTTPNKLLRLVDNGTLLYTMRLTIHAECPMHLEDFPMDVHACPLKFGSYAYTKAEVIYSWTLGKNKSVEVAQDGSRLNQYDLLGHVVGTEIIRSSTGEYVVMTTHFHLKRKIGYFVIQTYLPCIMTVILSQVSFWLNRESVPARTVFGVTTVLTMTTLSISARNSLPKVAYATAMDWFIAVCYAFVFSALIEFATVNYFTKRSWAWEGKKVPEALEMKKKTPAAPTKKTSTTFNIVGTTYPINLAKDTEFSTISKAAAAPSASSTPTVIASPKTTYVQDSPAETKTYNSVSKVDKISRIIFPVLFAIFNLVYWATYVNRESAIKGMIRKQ
Chain of α3β3γ2 GABAA receptor (P63079 26-473 partner): as the sequence (P63079 26-473 partner) above
Chain of α3β3γ2 GABAA receptor (P18508 39-466): as the sequence (P18508 39-466) above
Chain of GABAA/α5 receptors (P28472 26-473 partner, one chain of several): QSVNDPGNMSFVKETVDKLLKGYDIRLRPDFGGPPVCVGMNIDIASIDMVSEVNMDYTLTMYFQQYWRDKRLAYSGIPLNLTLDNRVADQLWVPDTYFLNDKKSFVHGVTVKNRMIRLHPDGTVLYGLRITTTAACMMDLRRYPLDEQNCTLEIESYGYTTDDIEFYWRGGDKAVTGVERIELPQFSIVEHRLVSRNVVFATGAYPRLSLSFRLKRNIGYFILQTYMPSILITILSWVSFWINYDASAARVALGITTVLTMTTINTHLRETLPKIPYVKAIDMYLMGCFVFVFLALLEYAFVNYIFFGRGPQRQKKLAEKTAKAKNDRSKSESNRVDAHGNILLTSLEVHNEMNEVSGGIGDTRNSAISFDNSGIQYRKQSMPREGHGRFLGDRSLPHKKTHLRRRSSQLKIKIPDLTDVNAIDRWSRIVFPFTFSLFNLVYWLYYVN

## C#Cc1ccc2c(c1)C(=O)N(C)Cc1c(C(=O)OC(C)(C)C)ncn1-2 [RY024]
[1]; concentrations up to 1 μM
  triggering of chloride currents (in words): did not trigger chloride currents
[2]; GABA EC20, α1β3γ2, extrapolated by curve-fit
  Estimated maximum modulation ± SD: −31.0±2.5%
[2]; oocytes
  efficacy / modulation of GABA elicited currents at α1 (in words): reduced GABA elicited currents in a concentration dependent manner
[3]; GABA EC20, α6β3γ2, extrapolated by curve-fit
  Estimated maximum modulation ± SD: +35.2 ± 1.5%
[3]; oocytes
  efficacy / modulation of GABA elicited currents at α6 (in words): weakly stimulated
[4]; GABA EC20, α2β3γ2, extrapolated by curve-fit
  Estimated maximum modulation ± SD: −20.7±1.2%
[4]; oocytes
  efficacy / modulation of GABA elicited currents at α2 (in words): reduced GABA elicited currents in a concentration dependent manner
[5]; GABA EC20, α5β3γ2, extrapolated by curve-fit
  Estimated maximum modulation ± SD: −40.4±0.8%
[5]; oocytes
  efficacy / modulation of GABA elicited currents at α5 (in words): reduced GABA elicited currents in a concentration dependent manner
[5]; reduction of GABA elicited currents
  EC50 lower for α5 containing receptors than for α1 and α2: ~10 fold
[6]; GABA EC20, α4β3γ2, extrapolated by curve-fit
  Estimated maximum modulation ± SD: +43.0 ± 15.9%
[6]; oocytes
  efficacy / modulation of GABA elicited currents at α4 (in words): weakly stimulated
[7]; 1 μM compound, α3 containing receptors, GABA EC3
  reduction of the stimulation by 30 nM Diazepam: 96.3±4.7%
[7]; GABA EC20, α3β3γ2, extrapolated by curve-fit
  Estimated maximum modulation ± SD: −3.3±2.1%
[7]; oocytes
  efficacy / modulation of GABA elicited currents at α3 (in words): no apparent modulation

## CCOC(=O)c1ncn2c1CN(C)C(=O)c1cc(CC)ccc1-2 [RY10, Ethyl 8-Ethyl-5,6-dihydro-5-methyl-6-oxo-4H-imidazo[1,5a][1,4]benzodiazepine-3-carboxylate]
[8]
  reversal of scopolamine-induced memory impairment (in words): potently reversed scopolamine-induced memory impairment

## C#Cc1ccc2c(c1)C(=O)N(C)Cc1c(C(=O)OCCCOC(=O)c3ncn4c3CN(C)C(=O)c3cc(C#C)ccc3-4)ncn1-2 [XLi-093, 1,3-Bis(8-acetyleno-5,6-dihydro-5-methyl-6-oxo-4H-imidazo[1,5a][1,4]-benzodiaze-pine-3-carboxy)propyl diester]
[9]
  Ki: 15 nM
[1]; up to a concentration of 1 nM
  triggering of chloride currents (in words): did not trigger chloride currents
[2]; 1 uM, α1β3γ2
  modulation of GABA induced chloride flux (in words): did not modulate
[2]; 1 μM, α1β3γ2
  influence on diazepam stimulation of GABA-induced current (in words): only marginally influenced
[10]
  performance / mean delay under titrating delayed matching to position schedule (in words): does indeed enhance performance
[11]
  affinity at other BzR/GABA(A) subtypes than α5 (in words): little or no affinity
[4]; 1 uM, α2β3γ2
  modulation of GABA induced chloride flux (in words): did not modulate
[4]; 1 μM, α2β3γ2
  influence on diazepam stimulation of GABA-induced current (in words): only marginally influenced
[5]; 1 uM, α5β3γ2
  modulation of GABA induced chloride flux (in words): very slightly inhibited currents
[5]; 1 μM, α5β3γ2
  influence on diazepam stimulation of GABA-induced current (in words): shifted the diazepam dose response curve to the right
[5]; α5β3γ2 receptors
  inhibition of diazepam-stimulated currents (in words): dose dependently and completely inhibit
[12]
  crossing of the blood brain barrier (in words): does cross the blood brain barrier
[7]; 1 uM, α3β3γ2
  modulation of GABA induced chloride flux (in words): did not modulate
[7]; 1 μM, α3β3γ2
  influence on diazepam stimulation of GABA-induced current (in words): only marginally influenced

## C#Cc1ccc2c(c1)C(c1ccccc1)=NCC(=O)N2C [QH-ii-066]
[13]
  Ki: < 50 nM
[14]
  Ki: < 50 nM
[15]
  Ki: < 10 nM
[16]
  Ki: > 70 nM
